Data: ChEMBL document CHEMBL1122359, “Improved delivery through biological membranes. 13. Brain-specific delivery of dopamine with a dihydropyridine in equilibrium with pyridinium salt type redox delivery system” (1983)

Tests used:
Assay type in all cases: functional
Rattus norvegicus [1] = species: Rattus norvegicus; experiment: Percent decrease in serum prolactin concentration in male rats
Rattus norvegicus [2] = species: Rattus norvegicus; experiment: In vitro Inhibitory activity against prolactin release in anterior pituitary from adult female rats(Charles Rivers Labs) at a concentration of 2*10e-8M
Rattus norvegicus [3] = species: Rattus norvegicus; experiment: In vitro Inhibitory activity against prolactin release in anterior pituitary from adult female rats(Charles Rivers Labs), at a concentration of 2*10e-7M
Rattus norvegicus [4] = experiment: In vitro Weight change in anterior pituitary after the administration of the compound

SMILES	Decrease (Rattus norvegicus [1])	Prolactin release rate (Rattus norvegicus [2])	Prolactin release rate (Rattus norvegicus [3])	Weight change of AP-S (Rattus norvegicus [4])
C[n+]1cccc(C(=O)NCCc2ccc(O)c(O)c2)c1.[I-]	67%	386 ng/mg/h	277 ng/mg/h	4.7 mg
CN1C=CCC(C(=O)NCCc2ccc(OC(=O)C(C)(C)C)c(OC(=O)C(C)(C)C)c2)=C1	79%	–	–	–
NCCc1ccc(O)c(O)c1 [DOPAMINE]	–	355 ng/mg/h	–	–
